Measured values published in ChEMBL document CHEMBL1154498, “Clinical stage EGFR inhibitors irreversibly alkylate Bmx kinase” (Bioorg Med Chem Lett, 2008).

How the values were obtained:
[1] = target: Tyrosine-protein kinase BTK (Homo sapiens, UniProt Q06187); assay: Inhibition of Btk
[2] = target: Receptor tyrosine-protein kinase erbB-2 (Homo sapiens, UniProt P04626); assay: Inhibition of HER2
[3] = target: Receptor tyrosine-protein kinase erbB-4 (Homo sapiens, UniProt Q15303); assay: Inhibition of HER4
Chain of Receptor tyrosine-protein kinase erbB-4 (Q15303 whole entry): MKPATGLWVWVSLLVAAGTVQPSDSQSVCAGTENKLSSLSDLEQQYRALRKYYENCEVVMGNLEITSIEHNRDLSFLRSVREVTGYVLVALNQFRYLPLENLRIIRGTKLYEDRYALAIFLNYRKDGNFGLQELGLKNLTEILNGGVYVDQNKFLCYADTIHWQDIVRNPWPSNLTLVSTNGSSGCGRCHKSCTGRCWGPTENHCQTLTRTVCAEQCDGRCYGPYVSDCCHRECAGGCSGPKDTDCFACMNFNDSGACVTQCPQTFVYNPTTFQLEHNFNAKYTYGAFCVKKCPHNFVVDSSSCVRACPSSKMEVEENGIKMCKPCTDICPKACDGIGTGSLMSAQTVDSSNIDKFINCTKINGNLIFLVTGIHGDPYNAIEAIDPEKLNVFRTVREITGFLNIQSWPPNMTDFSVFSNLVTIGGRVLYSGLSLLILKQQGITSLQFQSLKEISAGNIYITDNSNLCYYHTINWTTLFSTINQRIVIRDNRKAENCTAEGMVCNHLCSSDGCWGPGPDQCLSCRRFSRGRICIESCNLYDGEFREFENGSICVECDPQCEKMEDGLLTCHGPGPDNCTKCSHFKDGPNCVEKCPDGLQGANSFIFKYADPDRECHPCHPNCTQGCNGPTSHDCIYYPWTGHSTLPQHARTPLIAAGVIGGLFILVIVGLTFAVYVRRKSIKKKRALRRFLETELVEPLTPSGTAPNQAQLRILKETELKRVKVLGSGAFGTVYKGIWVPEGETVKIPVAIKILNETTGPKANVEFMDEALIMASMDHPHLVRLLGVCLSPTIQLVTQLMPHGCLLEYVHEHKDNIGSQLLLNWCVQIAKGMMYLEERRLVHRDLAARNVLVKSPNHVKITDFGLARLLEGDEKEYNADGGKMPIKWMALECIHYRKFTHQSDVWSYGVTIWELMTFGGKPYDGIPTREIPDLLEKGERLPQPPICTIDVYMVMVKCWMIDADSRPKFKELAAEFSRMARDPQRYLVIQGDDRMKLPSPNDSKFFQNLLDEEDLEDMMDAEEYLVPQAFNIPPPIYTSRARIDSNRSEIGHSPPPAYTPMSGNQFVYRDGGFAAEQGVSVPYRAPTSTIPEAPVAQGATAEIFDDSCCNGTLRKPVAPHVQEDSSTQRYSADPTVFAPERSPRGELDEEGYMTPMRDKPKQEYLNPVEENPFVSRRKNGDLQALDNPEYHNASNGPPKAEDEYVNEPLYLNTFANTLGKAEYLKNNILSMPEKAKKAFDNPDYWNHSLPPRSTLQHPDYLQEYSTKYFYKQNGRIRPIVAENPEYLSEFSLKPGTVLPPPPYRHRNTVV

[4] = target: T1, Tyrosine-protein kinase JAK3 (Homo sapiens, UniProt P52333); assay: Inhibition of JAK3
T1 sequence (P52333 whole entry): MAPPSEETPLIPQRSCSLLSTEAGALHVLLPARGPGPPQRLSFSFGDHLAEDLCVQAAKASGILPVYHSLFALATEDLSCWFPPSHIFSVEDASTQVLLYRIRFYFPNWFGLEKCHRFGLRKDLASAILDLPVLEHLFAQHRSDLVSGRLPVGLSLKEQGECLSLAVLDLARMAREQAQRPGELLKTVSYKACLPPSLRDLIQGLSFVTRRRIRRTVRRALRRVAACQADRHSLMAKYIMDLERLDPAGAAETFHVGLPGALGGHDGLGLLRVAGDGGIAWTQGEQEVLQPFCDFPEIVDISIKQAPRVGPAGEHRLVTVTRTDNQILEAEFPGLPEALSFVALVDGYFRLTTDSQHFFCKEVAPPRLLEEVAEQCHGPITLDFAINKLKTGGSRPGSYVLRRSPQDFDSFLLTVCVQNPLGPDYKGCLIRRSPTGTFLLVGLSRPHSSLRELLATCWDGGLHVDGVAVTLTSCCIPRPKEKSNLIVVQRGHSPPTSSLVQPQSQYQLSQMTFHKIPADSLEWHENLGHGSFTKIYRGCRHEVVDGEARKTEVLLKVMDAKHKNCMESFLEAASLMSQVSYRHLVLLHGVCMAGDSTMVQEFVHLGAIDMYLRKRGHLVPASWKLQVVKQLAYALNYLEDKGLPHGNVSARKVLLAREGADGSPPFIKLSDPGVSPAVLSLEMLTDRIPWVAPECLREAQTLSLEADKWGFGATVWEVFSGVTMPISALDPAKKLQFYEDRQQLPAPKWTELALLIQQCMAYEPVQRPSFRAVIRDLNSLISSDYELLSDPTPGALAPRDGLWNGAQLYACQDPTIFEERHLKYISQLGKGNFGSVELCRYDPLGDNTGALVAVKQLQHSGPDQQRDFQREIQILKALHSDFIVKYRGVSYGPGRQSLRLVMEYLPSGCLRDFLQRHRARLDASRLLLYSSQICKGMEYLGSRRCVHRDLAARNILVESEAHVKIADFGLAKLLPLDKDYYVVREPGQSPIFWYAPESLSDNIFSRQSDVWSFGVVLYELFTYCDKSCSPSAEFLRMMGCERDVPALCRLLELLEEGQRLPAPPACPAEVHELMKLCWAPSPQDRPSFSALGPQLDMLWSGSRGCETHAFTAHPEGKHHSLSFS

[5] = target: Tyrosine-protein kinase Blk (Homo sapiens, UniProt P51451); assay: Inhibition of Blk
Chain of Tyrosine-protein kinase Blk (P51451 whole entry): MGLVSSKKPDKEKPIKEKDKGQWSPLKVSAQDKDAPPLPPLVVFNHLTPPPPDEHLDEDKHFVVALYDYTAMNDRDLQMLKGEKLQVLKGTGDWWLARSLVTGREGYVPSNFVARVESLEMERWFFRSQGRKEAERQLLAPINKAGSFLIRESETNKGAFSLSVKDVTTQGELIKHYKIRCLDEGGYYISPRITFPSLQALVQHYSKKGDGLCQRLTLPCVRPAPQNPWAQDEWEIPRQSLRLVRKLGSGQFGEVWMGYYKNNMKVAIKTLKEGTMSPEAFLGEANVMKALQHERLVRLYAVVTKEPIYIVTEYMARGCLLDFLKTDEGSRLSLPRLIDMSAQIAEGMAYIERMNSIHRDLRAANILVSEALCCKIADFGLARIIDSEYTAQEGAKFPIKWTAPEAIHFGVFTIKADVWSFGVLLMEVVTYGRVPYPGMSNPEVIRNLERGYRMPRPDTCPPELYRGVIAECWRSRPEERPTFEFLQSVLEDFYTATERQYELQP

[6] = target: T2, Serine/threonine-protein kinase STK11 (Homo sapiens, UniProt Q15831); assay: Inhibition of Lkb1
T2 sequence (Q15831 whole entry): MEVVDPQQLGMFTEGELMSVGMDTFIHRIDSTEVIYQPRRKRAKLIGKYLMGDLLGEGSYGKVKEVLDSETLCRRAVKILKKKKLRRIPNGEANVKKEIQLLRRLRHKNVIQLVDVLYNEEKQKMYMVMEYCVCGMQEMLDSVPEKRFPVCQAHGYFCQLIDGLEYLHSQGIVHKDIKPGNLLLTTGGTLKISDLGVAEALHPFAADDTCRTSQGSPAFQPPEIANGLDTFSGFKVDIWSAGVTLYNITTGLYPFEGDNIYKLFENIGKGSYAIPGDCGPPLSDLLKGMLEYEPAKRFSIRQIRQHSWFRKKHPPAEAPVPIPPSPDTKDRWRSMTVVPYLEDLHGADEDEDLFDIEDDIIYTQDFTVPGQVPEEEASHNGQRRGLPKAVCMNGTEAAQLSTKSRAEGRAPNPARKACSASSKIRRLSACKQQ

[7] = target: T3, Tyrosine-protein kinase ITK/TSK (Homo sapiens, UniProt Q08881); assay: Inhibition of Itk
T3 sequence (Q08881 whole entry): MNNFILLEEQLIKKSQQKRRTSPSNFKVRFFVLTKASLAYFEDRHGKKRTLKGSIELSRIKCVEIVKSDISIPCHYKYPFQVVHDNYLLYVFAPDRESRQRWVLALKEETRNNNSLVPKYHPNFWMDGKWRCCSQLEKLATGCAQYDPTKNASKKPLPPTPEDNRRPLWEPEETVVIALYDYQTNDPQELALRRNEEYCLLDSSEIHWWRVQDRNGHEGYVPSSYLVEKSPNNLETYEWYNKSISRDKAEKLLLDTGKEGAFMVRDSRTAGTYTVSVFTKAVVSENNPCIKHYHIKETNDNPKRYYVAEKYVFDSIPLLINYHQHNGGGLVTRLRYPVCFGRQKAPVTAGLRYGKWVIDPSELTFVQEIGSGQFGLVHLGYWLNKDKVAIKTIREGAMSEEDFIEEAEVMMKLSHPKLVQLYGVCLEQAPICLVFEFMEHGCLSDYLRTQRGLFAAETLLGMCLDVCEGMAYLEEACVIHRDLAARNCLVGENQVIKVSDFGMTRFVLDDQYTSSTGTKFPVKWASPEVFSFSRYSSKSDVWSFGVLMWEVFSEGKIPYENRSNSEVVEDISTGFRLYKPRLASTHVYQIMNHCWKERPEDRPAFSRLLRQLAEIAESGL

Chain of Tyrosine-protein kinase BTK (Q06187 whole entry): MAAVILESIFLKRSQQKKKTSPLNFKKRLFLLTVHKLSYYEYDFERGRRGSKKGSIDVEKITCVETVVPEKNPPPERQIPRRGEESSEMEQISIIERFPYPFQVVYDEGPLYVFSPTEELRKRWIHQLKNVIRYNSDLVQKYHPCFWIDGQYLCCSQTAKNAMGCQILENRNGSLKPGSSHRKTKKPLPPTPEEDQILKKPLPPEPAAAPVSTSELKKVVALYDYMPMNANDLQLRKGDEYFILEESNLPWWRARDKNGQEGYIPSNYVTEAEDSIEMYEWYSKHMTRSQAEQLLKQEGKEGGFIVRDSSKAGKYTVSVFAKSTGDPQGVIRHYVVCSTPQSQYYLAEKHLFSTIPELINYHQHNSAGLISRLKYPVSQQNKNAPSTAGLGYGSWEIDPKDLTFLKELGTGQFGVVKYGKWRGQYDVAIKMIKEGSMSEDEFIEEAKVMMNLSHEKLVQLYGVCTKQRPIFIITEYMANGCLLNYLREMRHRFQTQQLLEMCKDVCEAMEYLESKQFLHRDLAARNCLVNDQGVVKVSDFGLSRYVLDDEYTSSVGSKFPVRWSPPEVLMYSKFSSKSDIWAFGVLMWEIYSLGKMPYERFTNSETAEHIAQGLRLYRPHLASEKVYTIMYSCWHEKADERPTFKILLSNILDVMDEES
Chain of Receptor tyrosine-protein kinase erbB-2 (P04626 whole entry): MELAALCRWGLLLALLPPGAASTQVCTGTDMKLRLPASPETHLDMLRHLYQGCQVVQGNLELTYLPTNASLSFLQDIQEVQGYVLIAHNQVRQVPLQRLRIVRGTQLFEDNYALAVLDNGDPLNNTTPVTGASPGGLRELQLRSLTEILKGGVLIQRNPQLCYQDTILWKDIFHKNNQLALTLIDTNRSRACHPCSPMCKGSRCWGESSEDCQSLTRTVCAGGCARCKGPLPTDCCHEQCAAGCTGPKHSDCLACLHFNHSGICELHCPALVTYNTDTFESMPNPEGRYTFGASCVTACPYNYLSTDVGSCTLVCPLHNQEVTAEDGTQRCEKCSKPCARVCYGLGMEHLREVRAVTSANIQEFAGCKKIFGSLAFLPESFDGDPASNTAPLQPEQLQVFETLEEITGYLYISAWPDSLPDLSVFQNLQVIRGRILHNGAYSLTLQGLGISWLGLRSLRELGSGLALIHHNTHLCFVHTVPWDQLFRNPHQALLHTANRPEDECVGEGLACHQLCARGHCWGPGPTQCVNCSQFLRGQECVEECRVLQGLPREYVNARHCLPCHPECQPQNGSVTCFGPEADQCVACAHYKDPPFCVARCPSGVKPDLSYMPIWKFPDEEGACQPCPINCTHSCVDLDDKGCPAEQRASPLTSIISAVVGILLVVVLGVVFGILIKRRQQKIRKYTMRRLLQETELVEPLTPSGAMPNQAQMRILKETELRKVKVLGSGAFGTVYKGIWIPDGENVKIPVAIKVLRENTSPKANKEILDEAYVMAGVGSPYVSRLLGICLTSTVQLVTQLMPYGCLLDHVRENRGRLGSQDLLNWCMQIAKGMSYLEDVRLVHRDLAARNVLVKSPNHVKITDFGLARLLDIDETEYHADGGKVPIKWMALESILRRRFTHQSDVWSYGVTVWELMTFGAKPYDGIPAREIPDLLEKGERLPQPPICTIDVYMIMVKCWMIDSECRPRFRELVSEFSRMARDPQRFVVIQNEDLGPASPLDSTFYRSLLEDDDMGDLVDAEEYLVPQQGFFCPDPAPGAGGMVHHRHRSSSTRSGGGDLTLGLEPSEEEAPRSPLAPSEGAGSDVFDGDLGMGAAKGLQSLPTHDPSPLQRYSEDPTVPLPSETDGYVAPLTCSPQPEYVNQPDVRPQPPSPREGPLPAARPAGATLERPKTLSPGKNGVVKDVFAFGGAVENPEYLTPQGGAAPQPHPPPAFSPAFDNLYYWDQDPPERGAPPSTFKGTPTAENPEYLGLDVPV

IC50 [1]	IC50 [2]	IC50 [3]	IC50 [4]	IC50 [5]	IC50 [6]	IC50 [7]	Structure (SMILES)
0.185 µM							C=CC(=O)Nc1cc2c(Nc3ccc(F)c(Cl)c3)ncnc2cc1OCCCN1CCOCC1 [CANERTINIB]
5.83 µM	24 nM	12 nM	3.14 µM	5.47 µM	> 10 µM	> 30 µM	C=CC(=O)Nc1ccc2ncnc(Nc3cccc(Br)c3)c2c1
